Results on three molecules are retold here after paper PMC6966663 (Cancers, 2019).

SMILES strings stand for the structures.

Details of data set [1]: method as in PMID 31478386. Conditions: clinical; cited from earlier work.
A further data set concerns p-PRAS40. Further details: method as in PMID 31118521. As to conditions: at 4 h post-dosing; cited from earlier work.
The subject of data set [2] is HR+ advanced breast cancer. Details: method as in PMID 31091374. As to conditions: in combination with fulvestrant, cited from earlier work.
The conditions of data set [3]: human, in vivo. From the text:
Safety evaluations included adverse events (AEs), vital signs, laboratory tests, and 12-lead electrocardiograms at screening, at planned times during each cycle, during follow-up, and up to 30 days after the last dose. Adverse events were graded using the National Cancer Institute Common CTCAE version 4.03.
Descriptive statistics were used to summarize demographic data, other baseline characteristics, AEs, safety parameters, and tumor assessment data. […] All subjects who completed the study were included in the evaluation of PD/PK. […] The incidence of treatment-emergent adverse events and drug-related adverse events, respectively, was summarized by treatment in frequency tables using the CTCAE grade.

For data set [4], the system named is cells with PI3K/AKT/mTOR pathway alterations. As to conditions: cited from earlier work.

`NC1(C(=O)N[C@@H](CCO)c2ccc(Cl)cc2)CCN(c2ncnc3[nH]ccc23)CC1` [AZD5363]: in data set [1], the “Rate of Grade 3 hyperglycemia” value was “up to 39.0%”. The “Reduction in p-PRAS40” value with p-PRAS40 was “about 60%”.
In the case of `Cc1nc(NC(=O)N2CCC[C@H]2C(N)=O)sc1-c1ccnc(C(C)(C)C(F)(F)F)c1` [alpelisib], the PFS in data set [2] (PIK3CA-mutated HR+ advanced breast cancer after previous endocrine therapy, versus 5.7 for control) is 11.0 months. Also, the Overall response rate in data set [2] (patients without PIK3CA mutation as printed, versus 12.8% placebo control) is recorded as 26.6%.
For `NC(=O)c1ccc2nc(-c3ccc(C4(N)CCC4)cc3)c(-c3ccccc3)n2n1` [BAY 1125976], in data set [3], the “Patients with at least one treatment-emergent adverse event (TEAE)” value is listed as 77 (97.5%) patients and the “Patients with serious adverse events (SAEs)” value came out at 33 patients. For the same molecule, in data set [4], the “IC50 of inhibition of proliferation” value is given as “submicromolar”.
